The record followed here is ChEMBL document CHEMBL6096735, “Exploring the Ascorbate Requirement of the 2-Oxoglutarate-Dependent Dioxygenases” (J Med Chem, 2025).

The target of the assay is Methylcytosine dioxygenase TET2 (Homo sapiens) (UniProt Q6N021). As to the kind of experiment: Binding affinity to TET2 (unknown origin) assessed as binding constant.

`O=C1O[C@H]([C@H](O)CO)C(O)=C1O`: the Kb is 8.7 10^3/M.

On to `O=C1O[C@H]([C@@H](O)CO)C(O)=C1O`, for which the Kb was 8.7 10^3/M.
